# pIC50: −log10 of the molar value.
# Target: CCR2 (Homo sapiens (Human), UniProt P41597)
# Assay: Calcium activity assayed on the FLIPR Tetra in HEK-Gqi5 cells stably expressing CCR2
# Type: cell-based
# Details: FLIPR Tetra calcium assay
# Sequence of CCR2 (P41597 whole entry, species assumed): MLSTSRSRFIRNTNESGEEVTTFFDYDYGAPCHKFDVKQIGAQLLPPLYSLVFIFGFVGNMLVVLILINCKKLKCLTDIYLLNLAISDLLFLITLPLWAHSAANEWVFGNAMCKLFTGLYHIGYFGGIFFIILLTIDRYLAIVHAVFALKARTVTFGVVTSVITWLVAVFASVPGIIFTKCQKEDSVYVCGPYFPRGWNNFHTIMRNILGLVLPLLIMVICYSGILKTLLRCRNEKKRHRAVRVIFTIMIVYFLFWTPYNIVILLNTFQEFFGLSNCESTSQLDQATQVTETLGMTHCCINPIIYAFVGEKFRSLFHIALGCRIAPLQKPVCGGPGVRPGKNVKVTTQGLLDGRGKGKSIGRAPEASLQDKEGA
CCR2 % ANTAGONISM [%],pIC50,Structure (SMILES)
78,5.42,N#Cc1ccc(SCc2ccccc2)c(NS(=O)(=O)c2cc3ccccc3o2)c1 [N-[2-(benzylthio)-5-cyanophenyl]-1-benzofuran-2-sulfonamide]
64,5.72,NC(=O)NCC[S+]([O-])c1ccc(Cl)cc1NS(=O)(=O)c1cc2ccccc2o1 (stereo not shown) [N-[2-({2-[(aminocarbonyl)amino]ethyl}sulfinyl)-5-chlorophenyl]-1-benzofuran-2-sulfonamide]
68,5.70,NC(=O)NCCS(=O)(=O)c1ccc(Cl)cc1NS(=O)(=O)c1cc2ccccc2o1 [N-[2-({2-[(aminocarbonyl)amino]ethyl}sulfonyl)-5-chlorophenyl]-1-benzofuran-2-sulfonamide]
103,7.10,NC(=O)NCCSc1ccc(Cl)cc1NS(=O)(=O)c1cc2ccccc2o1 [N-[2-({2-[(aminocarbonyl)amino]ethyl}thio)-5-chlorophenyl]-1-benzofuran-2-sulfonamide]
98,7.96,C[S+]([O-])c1ccc(Cl)cc1NS(=O)(=O)c1cc2ccccc2o1 (stereo not shown) [N-[5-chloro-2-(methylsulfinyl)phenyl]-1-benzofuran-2-sulfonamide]
98,6.63,"C[S+]([O-])c1ccc(Cl)cc1NS(=O)(=O)c1ccc(F)cc1F (stereo not shown) [N-[5-chloro-2-(methylsulfinyl)phenyl]-2,4-difluorobenzenesulfonamide]"
97,7.27,C[S+]([O-])c1ccc(Cl)cc1NS(=O)(=O)c1ccc(C(F)(F)F)c([N+](=O)[O-])c1 (stereo not shown) [N-[5-chloro-2-(methylsulfinyl)phenyl]-3-nitro-4-(trifluoromethyl)benzenesulfonamide]
95,6.59,C[S+]([O-])c1ccc(Cl)cc1NS(=O)(=O)c1ccc(I)cc1 (stereo not shown) [N-[5-chloro-2-(methylsulfinyl)phenyl]-4-iodobenzenesulfonamide]
68,6.03,CC(C)c1ccc(S(=O)(=O)Nc2cc(Cl)ccc2[S+](C)[O-])cc1 (stereo not shown) [N-[5-chloro-2-(methylsulfinyl)phenyl]-4-isopropylbenzenesulfonamide]
101,6.74,Cc1ccc(S(=O)(=O)Nc2cc(Cl)ccc2[S+](C)[O-])cc1[N+](=O)[O-] (stereo not shown) [N-[5-chloro-2-(methylsulfinyl)phenyl]-4-methyl-3-nitrobenzenesulfonamide]
76,6.71,Cc1ccc(S(=O)(=O)Nc2cc(Cl)ccc2[S+](C)[O-])o1 (stereo not shown) [N-[5-chloro-2-(methylsulfinyl)phenyl]-5-methylfuran-2-sulfonamide]
48,,C[S+]([O-])c1ccc(Cl)cc1NS(=O)(=O)c1ccccc1 (stereo not shown) [N-[5-chloro-2-(methylsulfinyl)phenyl]benzenesulfonamide]
96,5.63,C[S+]([O-])c1ccc(Cl)cc1NS(=O)(=O)c1ccco1 (stereo not shown) [N-[5-chloro-2-(methylsulfinyl)phenyl]furan-2-sulfonamide]
53,5.95,C[S+]([O-])c1ccc(Cl)cc1NS(=O)(=O)c1cccs1 (stereo not shown) [N-[5-chloro-2-(methylsulfinyl)phenyl]thiophene-2-sulfonamide]
93,7.38,CS(=O)(=O)c1ccc(Cl)cc1NS(=O)(=O)c1cc2ccccc2o1 [N-[5-chloro-2-(methylsulfonyl)phenyl]-1-benzofuran-2-sulfonamide]
91,6.45,"CS(=O)(=O)c1ccc(Cl)cc1NS(=O)(=O)c1ccc(F)cc1F [N-[5-chloro-2-(methylsulfonyl)phenyl]-2,4-difluorobenzenesulfonamide]"
97,6.67,CS(=O)(=O)c1ccc(Cl)cc1NS(=O)(=O)c1ccc(C(F)(F)F)c([N+](=O)[O-])c1 [N-[5-chloro-2-(methylsulfonyl)phenyl]-3-nitro-4-(trifluoromethyl)benzenesulfonamide]
92,5.97,CS(=O)(=O)c1ccc(Cl)cc1NS(=O)(=O)c1ccc(I)cc1 [N-[5-chloro-2-(methylsulfonyl)phenyl]-4-iodobenzenesulfonamide]
0,,CC(C)c1ccc(S(=O)(=O)Nc2cc(Cl)ccc2S(C)(=O)=O)cc1 [N-[5-chloro-2-(methylsulfonyl)phenyl]-4-isopropylbenzenesulfonamide]
89,6.68,Cc1ccc(S(=O)(=O)Nc2cc(Cl)ccc2S(C)(=O)=O)cc1[N+](=O)[O-] [N-[5-chloro-2-(methylsulfonyl)phenyl]-4-methyl-3-nitrobenzenesulfonamide]
90,6.00,Cc1ccc(S(=O)(=O)Nc2cc(Cl)ccc2S(C)(=O)=O)o1 [N-[5-chloro-2-(methylsulfonyl)phenyl]-5-methylfuran-2-sulfonamide]
99,6.46,CS(=O)(=O)c1ccc(Cl)cc1NS(=O)(=O)c1ccco1 [N-[5-chloro-2-(methylsulfonyl)phenyl]furan-2-sulfonamide]
99,7.59,CSc1ccc(Cl)cc1NS(=O)(=O)c1cc2ccccc2o1 [N-[5-chloro-2-(methylthio)phenyl]-1-benzofuran-2-sulfonamide]
87,,"CSc1ccc(Cl)cc1NS(=O)(=O)c1ccc(F)cc1F [N-[5-chloro-2-(methylthio)phenyl]-2,4-difluorobenzenesulfonamide]"
90,6.31,CSc1ccc(Cl)cc1NS(=O)(=O)c1ccc(C(F)(F)F)c([N+](=O)[O-])c1 [N-[5-chloro-2-(methylthio)phenyl]-3-nitro-4-(trifluoromethyl)benzenesulfonamide]
71,5.69,CSc1ccc(Cl)cc1NS(=O)(=O)c1ccc(I)cc1 [N-[5-chloro-2-(methylthio)phenyl]-4-iodobenzenesulfonamide]
92,6.17,CSc1ccc(Cl)cc1NS(=O)(=O)c1ccc(C)c([N+](=O)[O-])c1 [N-[5-chloro-2-(methylthio)phenyl]-4-methyl-3-nitrobenzenesulfonamide]
77,7.15,CSc1ccc(Cl)cc1NS(=O)(=O)c1ccc(C)o1 [N-[5-chloro-2-(methylthio)phenyl]-5-methylfuran-2-sulfonamide]
93,6.03,CSc1ccc(Cl)cc1NS(=O)(=O)c1ccco1 [N-[5-chloro-2-(methylthio)phenyl]furan-2-sulfonamide]
